pEC50: −log10 of the molar value. Where two headings read alike, the source gives them in different places.
How the values were obtained:
[1] = system: locally advanced or metastatic melanoma; test: Antitumor response by RECIST 1.0; type: in vivo, human
Description: Medical history and demographics were collected at screening. The safety of study medication was evaluated on the basis of rate, type, severity graded in accordance with NCI CTCAE version 3.0. Safety assessments consisted of collecting all AEs, serious adverse events (SAEs) with their severity and relationship with study drug, and pregnancies. They included the regular monitoring of hematology, blood chemistry and urine performed at the study center/central laboratory and regular assessments of vital signs, physical condition, body weight, performance status, and cardiac data (i.e. electrocardiogram (ECG)/echocardiogram (ECHO)). Abnormalities in clinical laboratory tests that were considered clinically significant by the Investigator were recorded on the AE CRF. Dose‐limiting toxicities (DLTs) were defined for various organ systems and other clinically relevant adverse effects (Table S1). The DLT window was the first cycle while AEs were captured for the entire course of treatment. Evaluation of tumor response was conducted at Baseline, and at the end of every 8 weeks of treatment. Response was assessed using the Response Evaluation Criteria in Solid Tumors (RECIST) 1.0. […] All patients discontinuing from the study for progressive disease were to have their disease progression documented by radiologic evaluation.

[2] = system: soluble VEGFR-2 (sVEGFR-2); test: Blood level by ELISA; type: in vivo, human; conditions: all dose levels, over time
Description: (§1) Pharmacodynamic markers were examined using peripheral blood samples, tumor and nevi biopsies (when available) and tumor imaging. BRAF mutation status was determined by Sanger sequencing. Pharmacodynamic markers analyzed, in available tumor/nevus samples obtained before treatment or archival tissue and during treatment on cycle 1, day 8 or day 15, including cytoplasmic p‐MEK, p‐ERK, BIM, c‐KIT, p‐AKT473, pS6 and PTEN, and nuclear p‐ERK, Ki‐67, PARP, cyclin D1, MITF, p27, and p53. Biomarker expression was determined by calculating the percentage of change in the H‐score (14) between on‐treatment and fresh/archival pretreatment specimens. Blood levels of VEGFR‐2 and were assessed before and at multiple time points while on treatment using enzyme‐linked immunosorbent assay (ELISA). […] Changes in standard uptake value (SUV) were determined by a blinded, independent central imaging review panel. Complete metabolic response (CMR) was complete resolution of tumor FDG‐PET uptake so SUV is the same as background. Partial metabolic response (PMR) decrease in sum of the tumor SUV of ≥25% from the baseline scan. Progressive metabolic disease (PMD) was defined as an increase in tumor SUV of ≥25% from the baseline scan, or the appearance of new FDG‐PET uptake in metastatic lesions. Stable metabolic disease (SMD) was defined as a change in tumor SUV between the PMR and PMD criteria.

BRAF V600E = conditions: read-out: EC50 for BRAF V600E; preclinical data; cited from earlier work
Ki-67 = system: Ki-67
Description: as §1

[3] = 33 patients with BRAF-WT melanomas
[4] = BRAF mutation, All patients, 33 evaluable
[5] = BRAF mutation, DL 5, 8 evaluable
[6] = BRAF mutation, DL 6, 10 evaluable
[7] = BRAF mutation, DLs 1 to 4, 6 evaluable
[8] = BRAF mutation, DLs 7 and 7.1, 9 evaluable
[9] = BRAF unspecified/unknown, All patients, 5 evaluable
[10] = BRAF unspecified/unknown, DL 5, 0 evaluable
[11] = BRAF unspecified/unknown, DL 6, 2 evaluable
[12] = BRAF unspecified/unknown, DLs 1 to 4, 1 evaluable
[13] = BRAF unspecified/unknown, DLs 7 and 7.1, 2 evaluable
[14] = BRAF wild-type, All patients, 28 evaluable
[15] = BRAF wild-type, DL 5, 5 evaluable
[16] = BRAF wild-type, DL 6, 8 evaluable
[17] = BRAF wild-type, DLs 1 to 4, 8 evaluable
[18] = BRAF wild-type, DLs 7 and 7.1, 7 evaluable
[19] = Total, All patients, 66 evaluable
[20] = Total, DLs 1 to 4, 15 evaluable
[21] = Total, DLs 7 and 7.1, 18 evaluable

In the case of Cn1c(Nc2ccc(C(F)(F)F)cc2)nc2cc(Oc3ccnc(-c4ncc(C(F)(F)F)[nH]4)c3)ccc21 [RAF265], the “number of CR” value [1, 3] was “one”, the “number of PR” value [1, 3] was “two” and the “number of PR” value ([1]; 39 patients with BRAF V600E mutation) was “Four”. For the same molecule, the “number of complete responses (CR)” value ([1]; 66 evaluable patients) was “one”, the “number of partial responses (PR)” value ([1]; 66 evaluable patients) was “seven” and the “objective response rate (ORR), RECIST” value ([1]; 66 evaluable patients, all dose levels) was 12.1%. The “Best response CR or PR” value ([1]; All patients, 66 evaluable) was 8 (12.1) n (%), the “Best response CR, PR or SD” value ([1]; All patients, 66 evaluable) was 35 (53) n (%) and the “Complete response (CR), best overall response” value (“Complete response (CR)” below) [1, 4] was 0 n (%). For the same molecule, the “Partial response (PR), best overall response” value (“Partial response (PR)” below) [1, 4] was 4 (12) n (%), the “Progressive disease (PD), best overall response” value (shortened to “Progressive disease (PD)”) [1, 4] was […] and the “Stable disease (SD), best overall response” value (“Stable disease (SD)” below) [1, 4] was 15 (46) n (%). The “Complete response (CR)” value [1, 5] was 0 n (%), the “Partial response (PR)” value [1, 5] was 1 (12.5) n (%) and the “Progressive disease (PD)” value [1, 5] was 4 (50) n (%). The “Stable disease (SD)” value [1, 5] was 3 (37.5) n (%), the “Complete response (CR)” value [1, 6] was 0 n (%) and the “Partial response (PR)” value [1, 6] was 1 (10) n (%). The “Progressive disease (PD)” value [1, 6] was 2 (20) n (%), the “Stable disease (SD)” value [1, 6] was 7 (70) n (%) and the “Complete response (CR)” value [1, 7] was 0 n (%). For the same molecule, the “Partial response (PR)” value [1, 7] was 2 (33.3) n (%), the “Progressive disease (PD)” value [1, 7] was 4 (66.7) n (%) and the “Stable disease (SD)” value [1, 7] was 0 n (%). The “Complete response (CR)” value [1, 8] was 0 n (%), the “Partial response (PR)” value [1, 8] was 0 n (%) and the “Progressive disease (PD)” value [1, 8] was 4 (44) n (%). For the same molecule, the “Stable disease (SD)” value [1, 8] was 5 (56) n (%), the “Complete response (CR)” value [1, 9] was 0 n (%) and the “Partial response (PR)” value [1, 9] was 1 (20) n (%). For the same molecule, the “Progressive disease (PD)” value [1, 9] was 3 (60) n (%), the “Stable disease (SD)” value [1, 9] was 1 (20) n (%) and the “Complete response (CR)” value [1, 10] was 0 n (%). The “Partial response (PR)” value [1, 10] was 0 n (%), the “Progressive disease (PD)” value [1, 10] was 0 n (%) and the “Stable disease (SD)” value [1, 10] was 0 n (%). For the same molecule, the “Complete response (CR)” value [1, 11] was 0 n (%), the “Partial response (PR)” value [1, 11] was 0 n (%) and the “Progressive disease (PD)” value [1, 11] was 2 (100) n (%). For the same molecule, the “Stable disease (SD)” value [1, 11] was 0 n (%), the “Complete response (CR)” value [1, 12] was 0 n (%) and the “Partial response (PR)” value [1, 12] was 0 n (%). For the same molecule, the “Progressive disease (PD)” value [1, 12] was 0 n (%), the “Stable disease (SD)” value [1, 12] was 1 (100) n (%) and the “Complete response (CR)” value [1, 13] was 0 n (%). For the same molecule, the “Partial response (PR)” value [1, 13] was 1 (50) n (%), the “Progressive disease (PD)” value [1, 13] was 1 (50) n (%) and the “Stable disease (SD)” value [1, 13] was 0 n (%). The “Complete response (CR)” value [1, 14] was 1 (3.6) n (%), the “Progressive disease (PD)” value [1, 14] was […] and the “Stable disease (SD)” value [1, 14] was 11 (39.3) n (%). For the same molecule, the “Complete response (CR)” value [1, 15] was 0 n (%), the “Partial response (PR)” value [1, 15] was 0 n (%) and the “Progressive disease (PD)” value [1, 15] was 2 (40) n (%). For the same molecule, the “Stable disease (SD)” value [1, 15] was 3 (60) n (%), the “Complete response (CR)” value [1, 16] was 0 n (%) and the “Partial response (PR)” value [1, 16] was 1 (12.5) n (%). The “Progressive disease (PD)” value [1, 16] was 5 (62.5) n (%), the “Stable disease (SD)” value [1, 16] was 2 (25) n (%) and the “Complete response (CR)” value [1, 17] was 0 n (%). The “Partial response (PR)” value [1, 17] was 1 (12.5) n (%), the “Progressive disease (PD)” value [1, 17] was 6 (75) n (%) and the “Stable disease (SD)” value [1, 17] was 1 (12.5) n (%). The “Complete response (CR)” value [1, 18] was 1 (14.3) n (%), the “Partial response (PR)” value [1, 18] was 0 n (%) and the “Progressive disease (PD)” value [1, 18] was 1 (14.3) n (%). The “Stable disease (SD)” value [1, 18] was 5 (71.4) n (%), the “Best response CR or PR” value ([1]; DL 5, 13 evaluable) was 1 (7.7) n (%) and the “Best response CR, PR or SD” value ([1]; DL 5, 13 evaluable) was 7 (53.8) n (%). The “Best response CR or PR” value ([1]; DL 6, 20 evaluable) was 2 (10) n (%), the “Best response CR, PR or SD” value ([1]; DL 6, 20 evaluable) was 11 (55) n (%) and the “Best response CR or PR” value ([1]; DLs 1 to 4, 15 evaluable) was 3 (20) n (%). For the same molecule, the “Best response CR, PR or SD” value ([1]; DLs 1 to 4, 15 evaluable) was 5 (33.3) n (%), the “Best response CR or PR” value ([1]; DLs 7 and 7.1, 18 evaluable) was 2 (11.1) n (%) and the “Best response CR, PR or SD” value ([1]; DLs 7 and 7.1, 18 evaluable) was 12 (66.7) n (%). The “Complete response (CR)” value [1, 19] was 1 (1.5) n (%), the “Partial response (PR)” value [1, 19] was 7 (10.6) n (%) and the “Progressive disease (PD)” value [1, 19] was 31 (47) n (%). For the same molecule, the “Stable disease (SD)” value [1, 19] was 27 (40.9) n (%), the “Complete response (CR)” value ([1]; Total, DL 5, 13 evaluable) was 0 n (%) and the “Partial response (PR)” value ([1]; Total, DL 5, 13 evaluable) was 1 (7.7) n (%). For the same molecule, the “Progressive disease (PD)” value ([1]; Total, DL 5, 13 evaluable) was 6 (46.1) n (%), the “Stable disease (SD)” value ([1]; Total, DL 5, 13 evaluable) was 6 (46.1) n (%) and the “Complete response (CR)” value ([1]; Total, DL 6, 20 evaluable) was 0 n (%). For the same molecule, the “Partial response (PR)” value ([1]; Total, DL 6, 20 evaluable) was 2 (10) n (%), the “Progressive disease (PD)” value ([1]; Total, DL 6, 20 evaluable) was 9 (45) n (%) and the “Stable disease (SD)” value ([1]; Total, DL 6, 20 evaluable) was 9 (45) n (%). For the same molecule, the “Complete response (CR)” value [1, 20] was 0 n (%), the “Partial response (PR)” value [1, 20] was 3 (20) n (%) and the “Progressive disease (PD)” value [1, 20] was 10 (66.7) n (%). The “Stable disease (SD)” value [1, 20] was 2 (13.3) n (%), the “Complete response (CR)” value [1, 21] was 1 (5.6) n (%) and the “Partial response (PR)” value [1, 21] was 1 (5.6) n (%). The “Progressive disease (PD)” value [1, 21] was 6 (33.3) n (%), the “Stable disease (SD)” value [1, 21] was 10 (55.6) n (%) and the “median duration of response” value ([1]; responders, range 1.4–51.7 months) was […]. For the same molecule, the “number of PR” value ([1]; unknown BRAF mutation status) was “one”, the sVEGFR-2 levels [2] was “significant decrease” and the pEC50 (BRAF V600E) was […]. The “Ki67 % change vs pretreatment, Mean (SD)” value (Ki-67; All patients, n 23) was -13.46 (50) %, the “Ki67 % change vs pretreatment, Median” value (Ki-67; All patients, n 23) was -11.1% and the “Ki67 % change vs pretreatment, Mean (SD)” value (Ki-67; DL 5, n 2) was 0%. For the same molecule, the “Ki67 % change vs pretreatment, Median” value (Ki-67; DL 5, n 2) was 0%, the Ki67 decrease (Ki-67; DL 6) was “up to 51.8%” and the “Ki67 % change vs pretreatment, Mean (SD)” value (Ki-67; DL 6, n 6) was -47.93 (40.8) %. The “Ki67 % change vs pretreatment, Median” value (Ki-67; DL 6, n 6) was -51.8%, the “Ki67 % change vs pretreatment, Mean (SD)” value (Ki-67; DLs 1 - 4, n 11) was “+0.21 (59) %” and the “Ki67 % change vs pretreatment, Median” value (Ki-67; DLs 1 - 4, n 11) was -11.1%. For the same molecule, the “Ki67 % change vs pretreatment, Mean (SD)” value (Ki-67; DLs 7 and 7.1, n 4) was -6.08 (20) % and the “Ki67 % change vs pretreatment, Median” value (Ki-67; DLs 7 and 7.1, n 4) was -2.6%.

From paper PMC5548886 (Cancer Medicine, 2017)
